Measurements published in patent US9656988B2 (Pharmacyclics LLC, priority 2013, dated 2017).
Where two headings read alike, the source gives them in different places.

Molecular target: BTK (Homo sapiens (Human), UniProt Q06187)
Assay: Btk in vitro inhibitory activity (one of Method A TR-FRET, Method B electrophoretic mobility shift, Method C radiometric filter binding)
Assay type: biochemical
[1] = determined using one of the methods of Example 355a, 355b and 355c, read-out: BTK IC50

Chain of BTK (Q06187 whole entry): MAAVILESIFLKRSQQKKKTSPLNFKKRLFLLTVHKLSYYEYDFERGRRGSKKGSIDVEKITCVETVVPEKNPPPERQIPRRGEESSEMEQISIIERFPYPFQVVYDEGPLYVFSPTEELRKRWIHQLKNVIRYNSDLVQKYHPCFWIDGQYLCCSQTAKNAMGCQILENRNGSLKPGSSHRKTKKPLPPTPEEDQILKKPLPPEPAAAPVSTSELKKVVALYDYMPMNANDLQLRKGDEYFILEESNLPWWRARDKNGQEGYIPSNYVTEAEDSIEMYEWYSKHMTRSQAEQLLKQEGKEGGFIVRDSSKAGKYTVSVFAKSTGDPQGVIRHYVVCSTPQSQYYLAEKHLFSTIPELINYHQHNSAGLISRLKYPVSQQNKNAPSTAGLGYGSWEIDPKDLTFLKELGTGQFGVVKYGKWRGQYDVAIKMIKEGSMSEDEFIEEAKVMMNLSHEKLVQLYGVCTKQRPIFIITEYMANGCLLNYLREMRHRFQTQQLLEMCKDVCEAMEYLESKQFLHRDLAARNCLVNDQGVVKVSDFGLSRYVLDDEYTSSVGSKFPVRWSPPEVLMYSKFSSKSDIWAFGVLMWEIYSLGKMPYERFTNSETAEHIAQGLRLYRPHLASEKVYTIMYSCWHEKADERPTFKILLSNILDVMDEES

| IC50 [1] [nM] | IC50 (read-out: Btk (IC50)) [nM] | IC50 (Btk (IC50)) [nM] | Compound | IC50 [nM] |
| --- | --- | --- | --- | --- |
| < 10 | < 10 | – | C[C@@H]1[C@H](NC(=O)N(C)C)CCCN1c1cnc(C(N)=O)c(Nc2ccc(C3CCN(C4CCC4)CC3)cc2)n1 [Example 238, 3-(4-(1-cyclobutylpiperidin-4-yl)phenylamino)-5-((2R,3R)-3-(3,3-dimethylureido)-2-methylpiperidin-1-yl)pyrazine-2-carboxamide] | – |
| < 10 | < 10 | – | C[C@@H]1[C@H](NC(=O)N(C)C)CCCN1c1cnc(C(N)=O)c(Nc2ccc(C3(C(F)(F)F)CC3)cc2)n1 [Example 239, 5-((2R,3R)-3-(3,3-dimethylureido)-2-methylpiperidin-1-yl)-3-(4-(1-(trifluoromethyl)cyclopropyl)phenylamino)pyrazine-2-carboxamide] | – |
| < 10 | < 10 | – | C[C@@H]1[C@H](NC(=O)N(C)C)CCCN1c1cnc(C(N)=O)c(Nc2ccc(C3(C#N)CC3)cc2)n1 [Example 240, 3-(4-(1-cyanocyclopropyl)phenylamino)-5-((2R,3R)-3-(3,3-dimethylureido)-2-methylpiperidin-1-yl)pyrazine-2-carboxamide] | – |
| < 10 | – | – | Cc1cc(Nc2nc(N3CCC[C@@H](NC(=O)N(C)C)[C@H]3C)cnc2C(N)=O)sn1 [Example 242, 5-((2R,3R)-3-(3,3-dimethylureido)-2-methylpiperidin-1-yl)-3-(3-methylisothiazol-5-ylamino)pyrazine-2-carboxamide] | – |
| < 10 | – | – | CC(C)Oc1ccc(Nc2nc(N3CCC[C@@H](NC(=O)N(C)C)[C@H]3C)cnc2C(N)=O)cc1 [Example 243, 5-((2R,3R)-3-(3,3-dimethylureido)-2-methylpiperidin-1-yl)-3-(4-isopropoxyphenylamino)pyrazine-2-carboxamide] | – |
| < 10 | – | – | C[C@@H]1[C@H](NC(=O)N(C)C)CCCN1c1cnc(C(N)=O)c(Nc2ccc(S(C)(=O)=O)cc2)n1 [Example 244, 5-((2R,3R)-3-(3,3-dimethylureido)-2-methylpiperidin-1-yl)-3-(4-(methylsulfonyl)phenylamino)pyrazine-2-carboxamide] | – |
| < 10 | < 10 | – | C[C@@H]1[C@H](NC(=O)N(C)C)CCCN1c1cnc(C(N)=O)c(Nc2ccc(C3(C#N)CCCC3)cc2)n1 [Example 248, 3-(4-(1-cyanocyclopentyl)phenylamino)-5-((2R,3R)-3-(3,3-dimethylureido)-2-methylpiperidin-1-yl)pyrazine-2-carboxamide] | – |
| < 10 | < 10 | – | C[C@@H]1[C@H](NC(=O)N(C)C)CCCN1c1cnc(C(N)=O)c(Nc2ccc(C3(C(N)=O)CCCC3)cc2)n1 [Example 249, 3-(4-(1-carbamoylcyclopentyl)phenylamino)-5-((2R,3R)-3-(3,3-dimethylureido)-2-methylpiperidin-1-yl)pyrazine-2-carboxamide] | – |
| < 10 | < 10 | – | C[C@@H]1[C@H](NC(=O)N(C)C)CCCN1c1cnc(C(N)=O)c(Nc2ccc(C3(C#N)CCN(C4CCCC4)CC3)cc2)n1 [Example 250, 3-(4-(4-cyano-1-cyclopentylpiperidin-4-yl)phenylamino)-5-((2R,3R)-3-(3,3-dimethylureido)-2-methylpiperidin-1-yl)pyrazine-2-carboxamide] | – |
| < 10 | – | < 10 | C[C@@H]1[C@H](N2CCN(C)C2=O)CCCN1c1cnc(C(N)=O)c(Nc2ccc(C3(C)CCNCC3)cc2)n1 [Example 252, 5-((2R,3R)-2-methyl-3-(3-methyl-2-oxoimidazolidin-1-yl)piperidin-1-yl)-3-(4-(4-methylpiperidin-4-yl)phenylamino)pyrazine-2-carboxamide] | – |
| < 10 | < 10 | – | CCC(=O)N1CCC(C)(c2ccc(Nc3nc(N4CCC[C@@H](N5CCN(C)C5=O)[C@H]4C)cnc3C(N)=O)cc2)CC1 [Example 255, 3-(4-(4-methyl-1-propionylpiperidin-4-yl)phenylamino)-5-((2R,3R)-2-methyl-3-(3-methyl-2-oxoimidazolidin-1-yl)piperidin-1-yl)pyrazine-2-carboxamide] | – |
| < 10 | < 10 | – | CN1CCN([C@@H]2CCCN(c3cnc(C(N)=O)c(Nc4ccc(C5CCN(C6CCCC6)CC5)cc4)n3)C2)C1=O [Example 256, (R)-3-(4-(1-cyclopentylpiperidin-4-yl)phenylamino)-5-(3-(3-methyl-2-oxoimidazolidin-1-yl)piperidin-1-yl)pyrazine-2-carboxamide] | – |
| < 10 | < 10 | – | CCN1CCC(c2ccc(Nc3nc(N4CCC[C@@H](N5CCN(C)C5=O)C4)cnc3C(N)=O)cc2)CC1 [Example 257, (R)-3-(4-(1-ethylpiperidin-4-yl)phenylamino)-5-(3-(3-methyl-2-oxoimidazolidin-1-yl)piperidin-1-yl)pyrazine-2-carboxamide] | – |
| < 10 | – | – | CN1CCN([C@@H]2CCCN(c3cnc(C(N)=O)c(Nc4ccc(C5CCN(C6CCC6)CC5)cc4)n3)C2)C1=O [Example 258] | – |
| < 10 | < 10 | – | CN1CCN([C@@H]2CCCN(c3cnc(C(N)=O)c(Nc4ccc(C5CCN(C6CC6)CC5)cc4)n3)C2)C1=O [Example 259, (R)-3-(4-(1-cyclopropylpiperidin-4-yl)phenylamino)-5-(3-(3-methyl-2-oxoimidazolidin-1-yl)piperidin-1-yl)pyrazine-2-carboxamide] | – |
| < 10 | < 10 | – | CN1CCN([C@@H]2CCCN(c3cnc(C(N)=O)c(Nc4ccc(N5CCS(=O)(=O)CC5)cc4)n3)C2)C1=O [Example 260, (R)-5-(3-(3-methyl-2-oxoimidazolidin-1-yl)piperidin-1-yl)-3-(4-(1,1-dioxothiomorpholino)phenylamino)pyrazine-2-carboxamide] | – |
| < 10 | < 10 | – | CN1CCN([C@@H]2CCCN(c3cnc(C(N)=O)c(Nc4ccc(C5(C)CCN(C=O)CC5)cc4)n3)C2)C1=O [Example 268, (R)-3-(4-(1-formyl-4-methylpiperidin-4-yl)phenylamino)-5-(3-(3-methyl-2-oxoimidazolidin-1-yl)piperidin-1-yl)pyrazine-2-carboxamide] | – |
| < 10 | < 10 | – | CCC(=O)N1CCC(C)(c2ccc(Nc3nc(N4CCC[C@@H](N5CCN(C)C5=O)C4)cnc3C(N)=O)cc2)CC1 [Example 269, (R)-3-(4-(4-methyl-1-propionylpiperidin-4-yl)phenylamino)-5-(3-(3-methyl-2-oxoimidazolidin-1-yl)piperidin-1-yl)pyrazine-2-carboxamide] | – |

| Compound | IC50 [1] [nM] | IC50 (read-out: Btk (IC50)) [nM] | IC50 (Btk (IC50)) [nM] | IC50 [nM] |
| --- | --- | --- | --- | --- |
| C[C@@H]1[C@H](NC(=O)N(C)C)CCCN1c1cnc(C(N)=O)c(Nc2ccc(C3(C(N)=O)CC3)cc2)n1 [Example 241, 3-(4-(1-carbamoylcyclopropyl)phenylamino)-5-((2R,3R)-3-(3,3-dimethylureido)-2-methylpiperidin-1-yl)pyrazine-2-carboxamide] | < 10 | – | – | – |
| C[C@@H]1[C@H](NC(=O)N(C)C)CCCN1c1cnc(C(N)=O)c(Nc2ccc(C3(C)CCN(C4CCC4)CC3)cc2)n1 [Example 246, 3-(4-(1-cyclobutyl-4-methylpiperidin-4-yl)phenylamino)-5-((2R,3R)-3-(3,3-dimethylureido)-2-methylpiperidin-1-yl)pyrazine-2-carboxamide] | < 10 | < 10 | – | – |
| C[C@@H]1[C@H](NC(=O)N(C)C)CCCN1c1cnc(C(N)=O)c(Nc2ccc(C3(C)CCN(C4CC4)CC3)cc2)n1 [Example 247, 3-(4-(1-cyclopropyl-4-methylpiperidin-4-yl)phenylamino)-5-((2R,3R)-3-(3,3-dimethylureido)-2-methylpiperidin-1-yl)pyrazine-2-carboxamide] | < 10 | < 10 | – | – |
| C[C@@H]1[C@H](NC(=O)N(C)C)CCCN1c1cnc(C(N)=O)c(Nc2ccc(C3(C(N)=O)CCN(C4CCCC4)CC3)cc2)n1 [Example 251, 3-(4-(4-carbamoyl-1-cyclopentylpiperidin-4-yl)phenylamino)-5-((2R,3R)-3-(3,3-dimethylureido)-2-methylpiperidin-1-yl)pyrazine-2-carboxamide] | – | < 10 | – | – |
| C[C@@H]1[C@H](N2CCN(C)C2=O)CCCN1c1cnc(C(N)=O)c(Nc2ccc(C3(C)CCN(C4CCCC4)CC3)cc2)n1 [Example 253, 3-(4-(1-cyclopentyl-4-methylpiperidin-4-yl)phenylamino)-5-((2R,3R)-2-methyl-3-(3-methyl-2-oxoimidazolidin-1-yl)piperidin-1-yl)pyrazine-2-carboxamide] | < 10 | – | – | – |
| CN1CCN([C@@H]2CCCN(c3cnc(C(N)=O)c(Nc4ccccc4)n3)C2)C1=O [Example 261, (R)-5-(3-(3-methyl-2-oxoimidazolidin-1-yl)piperidin-1-yl)-3-(phenylamino)pyrazine-2-carboxamide] | 10 to 100 | – | – | 10 to 100 |
| CN1CCN([C@@H]2CCCN(c3cnc(C(N)=O)c(Nc4ccc(C5(C(F)(F)F)CC5)cc4)n3)C2)C1=O [Example 262, (R)-5-(3-(3-methyl-2-oxoimidazolidin-1-yl)piperidin-1-yl)-3-(4-(1-(trifluoromethyl)cyclopropyl)phenylamino)pyrazine-2-carboxamide] | 10 to 100 | – | – | – |
| CN1CCN([C@@H]2CCCN(c3cnc(C(N)=O)c(Nc4ccc(C5(C)CCN(C6CC6)CC5)cc4)n3)C2)C1=O [Example 263, (R)-3-(4-(1-cyclopropyl-4-methylpiperidin-4-yl)phenylamino)-5-(3-(3-methyl-2-oxoimidazolidin-1-yl)piperidin-1-yl)pyrazine-2-carboxamide] | – | < 10 | – | – |
| CC(C)N1CCC(C)(c2ccc(Nc3nc(N4CCC[C@@H](N5CCN(C)C5=O)C4)cnc3C(N)=O)cc2)CC1 [Example 264, (R)-3-(4-(1-isopropyl-4-methylpiperidin-4-yl)phenylamino)-5-(3-(3-methyl-2-oxoimidazolidin-1-yl)piperidin-1-yl)pyrazine-2-carboxamide] | – | < 10 | – | – |
| CN1CCN([C@@H]2CCCN(c3cnc(C(N)=O)c(Nc4ccc(C5(C)CCN(C6CCCC6)CC5)cc4)n3)C2)C1=O [Example 267, (R)-3-(4-(1-cyclopentyl-4-methylpiperidin-4-yl)phenylamino)-5-(3-(3-methyl-2-oxoimidazolidin-1-yl)piperidin-1-yl)pyrazine-2-carboxamide] | < 10 | < 10 | – | – |
